Active and inactive are the calls of the source. The calls are words filed in the database; no cut-off is given here.
Assays:
[1] = Inhibition of IL1-beta induced MMP3 expression levels in human chondrocytes assessed as MMP3 levels incubated for 2hrs followed by IL1-beta stimulation and measured after overnight incubation by LANCE assay relative to control; type: functional, Chondrocyte
[2] = Induction of chondrogenesis in human MSC assessed as incubated for 6 days by rhodamine B and Nile red staining based imaging analysis; type: functional; conditions: bmmsc
[3] = target: Dual specificity tyrosine-phosphorylation-regulated kinase 1A (Homo sapiens, UniProt Q13627); experiment: Inhibition of recombinant DYRK1A (unknown origin) using Ser/Thr 18 peptide as substrate incubated for 1 hr in presence of ATP by FRET assay
[4] = Inhibition of IL1-beta induced MMP3 expression levels in human chondrocytes assessed as MMP3 levels incubated for 2hrs followed by IL1-beta stimulation and measured after overnight incubation by LANCE assay; type: functional, cell-based; conditions: Chondrocyte
[5] = Effect on Wnt signaling pathway in human SW480 cells harbouring TCF/LEF luciferase reporter gene and SP5-Luc reporter gene incubated for 36 to 48 hrs by luminescence assay; type: cell-based
[6] = Induction of chondrogenesis in human MSC assessed as maximum activity at 2700 nM incubated for 6 days by rhodamine B and Nile red staining based imaging analysis relative to control; type: functional; conditions: BMMSC, 144 h, time 6 day
Chondrocyte [7] = experiment: Inhibition of IL1-beta induced MMP-13 expression levels in human chondrocytes assessed as MMP-13 levels incubated for 2hrs followed by IL1-beta stimulation and measured after 24 hrs by qRT-PCR analysis; type: functional; conditions: time 26.0 hrs
[8] = Induction of chondrogenesis in human MSC assessed as maximum activity at 10 nM incubated for 6 days by rhodamine B and Nile red staining based imaging analysis relative to control; type: functional; conditions: BMMSC, 144 h, time 6 day
[9] = target: Dual specificity protein kinase CLK2 (Homo sapiens, UniProt P49760); experiment: Inhibition of recombinant CLK2 (unknown origin) using Ser/Thr 6 peptide as substrate incubated for 1 hr in presence of ATP by FRET assay
[10] = target: Dual specificity protein kinase CLK3 (Homo sapiens, UniProt P49761); experiment: Inhibition of recombinant CLK3 (unknown origin) using Ser/Thr 18 peptide as substrate incubated for 1 hr in presence of ATP by FRET assay
[11] = Induction of chondrogenesis in human MSC assessed as maximum activity at 300 nM incubated for 6 days by rhodamine B and Nile red staining based imaging analysis relative to control; type: functional; conditions: BMMSC, 144 h, time 6 day
[12] = Induction of chondrogenesis in human MSC assessed as maximum activity at 100 nM incubated for 6 days by rhodamine B and Nile red staining based imaging analysis relative to control; type: functional; conditions: BMMSC, 144 h, time 6 day
[13] = Induction of chondrogenesis in human MSC assessed as maximum activity at 20.58 nM incubated for 6 days by rhodamine B and Nile red staining based imaging analysis relative to control; type: functional; conditions: BMMSC, 144 h, time 6 day
Chondrocyte [14] = experiment: Inhibition of IL1-beta induced MMP3 expression levels in human chondrocytes assessed as MMP3 levels incubated for 2hrs followed by IL1-beta stimulation and measured after 24 hrs by qRT-PCR analysis; type: functional; conditions: time 26.0 hrs
[15] = Induction of chondrogenesis in human MSC assessed as maximum activity at 30 nM incubated for 6 days by rhodamine B and Nile red staining based imaging analysis relative to control; type: functional; conditions: BMMSC, 144 h, time 6 day

Dual specificity protein kinase CLK2, sequence (P49760 whole entry): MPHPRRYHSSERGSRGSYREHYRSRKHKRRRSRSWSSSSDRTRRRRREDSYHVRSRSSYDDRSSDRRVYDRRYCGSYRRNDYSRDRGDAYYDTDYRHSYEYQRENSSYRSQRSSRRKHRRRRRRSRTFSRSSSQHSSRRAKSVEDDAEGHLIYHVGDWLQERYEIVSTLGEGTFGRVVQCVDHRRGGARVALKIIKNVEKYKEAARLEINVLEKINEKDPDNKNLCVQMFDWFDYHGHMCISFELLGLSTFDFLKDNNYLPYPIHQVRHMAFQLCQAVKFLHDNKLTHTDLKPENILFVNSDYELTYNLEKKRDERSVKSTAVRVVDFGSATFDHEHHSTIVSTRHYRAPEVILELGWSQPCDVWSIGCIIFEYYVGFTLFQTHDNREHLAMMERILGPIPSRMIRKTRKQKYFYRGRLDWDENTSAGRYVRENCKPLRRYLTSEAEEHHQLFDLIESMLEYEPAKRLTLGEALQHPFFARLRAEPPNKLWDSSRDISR
Dual specificity protein kinase CLK3, sequence (P49761 whole entry): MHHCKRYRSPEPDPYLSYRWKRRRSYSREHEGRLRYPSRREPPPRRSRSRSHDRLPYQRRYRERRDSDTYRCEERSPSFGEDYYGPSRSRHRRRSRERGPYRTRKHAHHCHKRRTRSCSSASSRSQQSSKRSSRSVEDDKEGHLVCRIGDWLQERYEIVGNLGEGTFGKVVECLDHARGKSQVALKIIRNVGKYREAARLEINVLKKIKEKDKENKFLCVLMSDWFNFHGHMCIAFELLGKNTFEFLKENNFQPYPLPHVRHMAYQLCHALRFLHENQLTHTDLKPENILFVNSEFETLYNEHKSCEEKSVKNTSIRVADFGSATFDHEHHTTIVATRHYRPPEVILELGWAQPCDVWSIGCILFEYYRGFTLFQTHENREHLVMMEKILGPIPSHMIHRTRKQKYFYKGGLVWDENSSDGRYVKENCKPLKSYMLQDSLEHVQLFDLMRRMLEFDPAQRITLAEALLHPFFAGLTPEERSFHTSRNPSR

| Structure (SMILES) | EC50 [2] [µM] | EC50 [3] [µM] | EC50 [4] [µM] | EC50 [5] [µM] | EC50 [9] [µM] | EC50 [10] [µM] | further results |
| --- | --- | --- | --- | --- | --- | --- | --- |
| O=C(Nc1cncc(-c2ccc3[nH]nc(-c4cc5cnccc5[nH]4)c3c2)c1)C1CCCCC1 | 0.03 | 0.002 | 0.0067 | 0.285 | – | – | Imax [1]: 100%; Emax at 2.7 µM [6]: 155% |
| CN1CCN(c2cc(C(=O)Nc3cc4cc(-c5cnn(C)c5)ccc4cn3)ccn2)CC1 | – | – | – | – | – | – | Activity (Chondrocyte [7]): inactive; Emax at 0.01 µM [8]: 27.1% |
| Cc1ccc(C(=O)Nc2c[nH]nc2C(=O)Nc2ccc(OCCN3CCCC3)nc2)cn1 | – | 0.027 | 0.811 | 0.119 | 0.024 | 3.7 | Imax [1]: 23.7% |
| Fc1cccc(-c2cncc3[nH]c(-c4n[nH]c5ncc(-c6cccnc6)cc45)nc23)c1 | 0.1 | 0.012 | – | 0.006 | 0.005 | 0.048 | Emax at 0.3 µM [11]: 157% |
| CC(C)NC(=O)c1n[nH]c2ccc(-c3cncc(CN4CCC(F)(F)CC4)c3)cc12 | 2.7 | – | 0.008 | 0.0471 | – | – | Emax at 2.7 µM [6]: 104% |
| CN1CCN(c2ccc(NC(=O)c3n[nH]c4ccc(-c5cncc(NC(=O)c6c(F)cccc6F)c5)cc34)cn2)CC1 | – | 0.003 | 3 | 0.226 | 0.001 | 0.081 | Imax [1]: 54.9% |
| Oc1cncc(-c2ccc3[nH]nc(-c4nc5c(-c6cccc(F)c6)ccnc5[nH]4)c3c2)c1 | – | 0.012 | – | 0.011 | 0.017 | 0.045 | Emax at 0.1 µM [12]: 52.2% |
| CCC(=O)Nc1cncc(-c2ccc3[nH]nc(-c4nc5c(N6CCCCC6)ccnc5[nH]4)c3n2)c1 | – | 0.09 | – | > 10 | – | – | Emax at 0.02058 µM [13]: 38.3% |
| CN1CCN(c2nccc3[nH]c(-c4n[nH]c5ncc(-c6cncc(CN7CCCCC7)c6)cc45)cc23)CC1 | – | 0.011 | – | > 10 | 0.009 | 1.9 | Emax at 0.3 µM [11]: 50.7% |
| Cc1n[nH]c2ccc(-c3cncc(O[C@H]4CCNCC4(F)F)n3)cc12 | 0.3 | 0.002 | – | 0.227 | 0.003 | 0.313 | Emax at 0.3 µM [11]: 82.1% |
| CN1CCN(c2nccc3[nH]c(-c4n[nH]cc4/C=C/c4cncc(F)c4)nc23)CC1 | – | 0.01 | 3 | 0.325 | – | – | Activity (Chondrocyte [7]): inactive; Activity (Chondrocyte [14]): inactive; Emax at 0.01 µM [8]: 39% |
| CC(C)Nc1cncc(-c2ccc3[nH]nc(-c4nc5c(-c6cc(F)cc(NCCN(C)C)c6)cncc5[nH]4)c3n2)c1 | 0.3 | 0.009 | 3 | 1.66 | – | – | Emax at 2.7 µM [6]: 96.8% |
| Cn1cncc1-c1ccc2cnc(NC(=O)c3ccc(F)cc3)cc2c1 | – | – | 3 | – | – | – | Emax at 2.7 µM [6]: 24.9% |
| Cn1cc(-c2ccc3cnc(NC(=O)c4cnc5ccccc5c4)cc3c2)cn1 | – | – | 0.0191 | – | 0.004 | 0.066 | Imax [1]: 41.2% |
| CN1CCN(c2cc(CC(=O)Nc3cc4cc(-c5cnn(C)c5)ccc4cn3)ccn2)CC1 | – | – | 1.05 | – | 0.01 | 0.078 | Imax [1]: 100% |
| COc1cncc(-c2ccc3[nH]nc(-c4nc5c(-c6cccc(F)c6)nccc5[nH]4)c3n2)c1 | 0.0206 | 0.046 | – | 0.12 | – | – | Emax at 0.02058 µM [13]: 60.4% |
| CC(C)N1CCC(Oc2cc(C(=O)Nc3cc4cc(-c5cnn6c5CCNC6)ccc4cn3)ccn2)CC1 | – | 0.011 | 0.0758 | – | – | – | Activity (Chondrocyte [14]): inactive |
| Oc1cncc(-c2ccc3[nH]nc(-c4nc5c(-c6cccc(F)c6)ccnc5[nH]4)c3n2)c1 | 0.00229 | 0.043 | – | 0.375 | – | – | Emax at 0.02058 µM [13]: 59.3% |
| Fc1cccc(-c2ccnc3[nH]c(-c4n[nH]c5ccc(-c6cncc(CN7CCC(F)(F)C7)c6)cc45)nc23)c1 | 0.01 | 0.08 | – | 0.0191 | 0.021 | 0.09 | Emax at 0.03 µM [15]: 85.8% |

| Structure (SMILES) | EC50 [2] [µM] | EC50 [3] [µM] | EC50 [4] [µM] | EC50 [5] [µM] | EC50 [9] [µM] | EC50 [10] [µM] | further results |
| --- | --- | --- | --- | --- | --- | --- | --- |
| Cn1cc(-c2ccc3cnc(NC(=O)c4ccc5c(cnn5C)c4)cc3c2)cn1 | – | – | 3 | – | 0.003 | 0.049 | Imax [1]: 46.9% |
| Cc1nnc(-c2ccc3cnc(NC(=O)c4ccnc(C5=CCN(C)CC5)c4)cc3c2)s1 | – | – | 0.143 | – | 0.002 | 0.014 | Imax [1]: 35.3% |
| Oc1cncc(-c2ccc3[nH]nc(-c4nc5c(-c6cccc(F)c6)cncc5[nH]4)c3n2)c1 | 0.0206 | 0.031 | – | > 10 | – | – | Emax at 0.02058 µM [13]: 53.6% |
| O=C(Nc1ccc(CN2CCCC2)cc1)c1n[nH]cc1/C=C/c1cccnc1 | 0.9 | 0.004 | 0.0037 | 0.988 | – | – | Emax at 2.7 µM [6]: 194% |
| Fc1cccc(-c2cncc3[nH]c(-c4n[nH]c5ccc(-c6cn[nH]c6)nc45)nc23)c1 | 0.0206 | 0.016 | – | > 10 | – | > 10 | Emax at 0.02058 µM [13]: 51.8% |
| NC1CN(c2cncc(-c3ccc4[nH]nc(-c5nc6ccncc6[nH]5)c4c3)n2)C1 | – | 0.003 | 0.0208 | 0.344 | 0.001 | 0.182 | Imax [1]: 61.5% |
| O=C(Nc1cc2cc(-c3cncc(N[C@H]4CCNC[C@@H]4F)n3)ccc2cn1)C1CC1 | 2.7 | – | 3 | 0.0095 | 0.001 | 0.011 | Emax at 2.7 µM [6]: 68% |
| Cc1n[nH]c2ccc(-c3cncc(O[C@H]4CCNC[C@@H]4F)n3)cc12 | 0.1 | 0.011 | – | 0.672 | 0.001 | 1.72 | Emax at 0.1 µM [12]: 44.9% |
| C[C@@H]1CN(c2ccc(NC(=O)c3n[nH]c4ccc(-c5cncc(CN6CCCCC6)c5)cc34)cn2)C[C@H](C)O1 | 2.7 | – | – | 0.0028 | – | – | Emax at 2.7 µM [6]: 129% |
| CCCC(=O)Nc1cncc(-c2ccc3[nH]nc(-c4nc5c(-c6ccsc6)cncc5[nH]4)c3n2)c1 | 0.0206 | 0.046 | – | 3.6 | – | – | Emax at 0.02058 µM [13]: 58.4% |
| CCC(=O)Nc1cncc(-c2ccc3[nH]nc(-c4cc5c(N6CCCCC6)nccc5[nH]4)c3c2)c1 | 0.01 | 0.005 | – | 0.445 | 0.001 | 0.052 | Emax at 0.03 µM [15]: 244% |
| CN1CCN(c2cc(Nc3ncc4c(-c5ccc6ncccc6c5)c[nH]c4n3)ccn2)CC1 | 0.03 | 0.001 | 9.98 | 0.285 | – | – | Activity (Chondrocyte [7]): inactive; Activity (Chondrocyte [14]): inactive; Emax at 0.01 µM [8]: 73.4% |
| CN1CCCn2cc(nn2)-c2nccc3[nH]c(nc23)-c2n[nH]c3ccc(cc23)-c2cncc(c2)C1 | 0.01 | 0.004 | 3.78 | 0.338 | – | – | Activity (Chondrocyte [7]): inactive; Activity (Chondrocyte [14]): inactive; Emax at 0.01 µM [8]: 181% |
| Cc1cn(-c2cncc3[nH]c(-c4n[nH]c5ccc(-c6cncc(NC(=O)C(C)(C)C)c6)nc45)nc23)cn1 | 0.1 | 0.002 | 1.15 | > 10 | – | – | Emax at 2.7 µM [6]: 150% |
| CC(C)Oc1cncc(C(=O)Nc2c[nH]nc2C(=O)Nc2ccc(OC3CCN(C)CC3)nc2)c1 | 2.7 | 0.004 | 0.0015 | 0.0903 | – | – | Emax at 2.7 µM [6]: 140% |
| CN(C)CCNc1cc(F)cc(-c2cccc3[nH]c(-c4n[nH]c5cnc(-c6cncc(NC(=O)C(C)(C)C)c6)cc45)cc23)c1 | 0.01 | 0.045 | – | 0.386 | 0.006 | 0.049 | Emax at 0.03 µM [15]: 87.3% |
| CCNCc1cncc(-c2ccc3[nH]nc(-c4nc5c(-c6cc(F)cc(NCCN(C)C)c6)ccnc5[nH]4)c3n2)c1 | 0.0206 | 0.008 | – | > 10 | – | – | Emax at 0.02058 µM [13]: 149% |
| CN1CCC(Oc2ccc(C(=O)Nc3cc4cc(-c5cnn(C)c5)ccc4cn3)cc2)CC1 | – | – | 3 | – | – | – | Activity (Chondrocyte [14]): inactive; Emax at 0.01 µM [8]: 25.4% |
| O=C(Nc1ccc(N2CCC(F)(F)C2)nc1)c1n[nH]cc1C#Cc1cccnc1 | – | 0.021 | 3 | > 10 | 0.032 | > 10 | Imax [1]: 88.5% |

Reference: ChEMBL document CHEMBL4739717, “Methods of treating cartilage disorders through inhibition of clk and dyrk” (2020)
